Among the data in patent US9765035B2 (priority 2013, dated 2017) are IC50 values, retold here.

SMILES strings stand for the structures. Read-outs that look alike come from different tables or passages of the source. Where only a bound is given, the exact number is not on record here.

The assay concerns the target human PRMT8 (Homo sapiens, UniProt Q9NR22). Briefly: biochemical. From the text:
General Materials. S-adenosylmethionine (SAM), S-adenosylhomocysteine (SAH), bicine, Tween20, dimethylsulfoxide (DMSO), bovine skin gelatin (BSG), isopropyl-β-D-thiogalactopyranoside (IPTG), and Tris(2-carboxyethyl)phosphine hydrochloride solution (TCEP) were purchased from Sigma-Aldrich at the highest level of purity possible. ^3H-SAM was purchase from American Radiolabeled Chemicals with a specific activity of 80 Ci/mmol. 384-well streptavidin Flashplates were purchased from PerkinElmer.
Substrates. Peptide representative of human histone H4 residues 31-45 was synthesized with an N-terminal linker-affinity tag motif and a C-terminal amide cap by 21st Century Biochemicals. The peptide was purified by high-performance liquid chromatography (HPLC) to greater than 95% purity and confirmed by liquid chromatography mass spectrometry (LC-MS). The sequence was Biot-Ahx-[…]-amide (SEQ ID NO.:8).
The resulting construct encodes an N-terminal GST tag and a thrombin cleavage sequence
Protein Expression. E. coli (BL21(DE3) Gold, Stratagene) made competent by the CaCl2 method were transformed with the PRMT8 construct and ampicillin selection. Protein over-expression was accomplished by growing the PRMT8 expressing E. coli clone and inducing expression with 0.3 mM IPTG at 16° C. The culture was grown for 12 hours, harvested by centrifugation, and stored at −80° C. for purification.
Protein Purification. […] GST-tagged PRMT8 was eluted with 50 mM Tris, 2 mM glutathione, pH 7.8. Pooled fractions were cleaved by thrombin (10 U) and dialysed in buffer A. GST was removed by reloading the cleaved protein sample onto glutathione sepharose column and PRMT8 was collected in the flow-through fractions. PRMT8 was purified further by ceramic hydroxyapatite chromatography. The column was washed with 50 mM phosphate buffer, 100 mM NaCl, 5% glycerol, 5 mM β-mercaptoethanol, pH 7.8 and PRMT8 was eluted by 100 mM phosphate in the same buffer. Protein was concentrated and buffer was exchanged to 50 mM Tris, 300 mM NaCl, 10% glycerol, 5 mM β-mercaptoethanol, pH 7.8 by ultrafiltration. The purity of recovered protein was 89%.
General Procedure for PRMT8 Enzyme Assays on Peptide Substrates. The assays were all performed in a buffer consisting of 20 mM Bicine (pH=7.6), 1 mM TCEP, 0.005% BSG, and 0.002% Tween 20, prepared on the day of use. Compounds in 100% DMSO (1 ul) were spotted into a polypropylene 384-well V-bottom plates (Greiner) using a Platemate Plus outfitted with a 384-channel head (Thermo Scientific). DMSO (1 ul) was added to Columns 11, 12, 23, 24, rows A-H for the maximum signal control and 1 ul of SAH, a known product and inhibitor of PRMT8, was added to columns 11, 12, 23, 24, rows I-P for the minimum signal control. A cocktail (40 ul) containing the PRMT8 enzyme was added by Multidrop Combi (Thermo-Fisher). The compounds were allowed to incubate with PRMT8 for 30 min at room temperature, then a cocktail (10 ul) containing ^3H-SAM and peptide was added to initiate the reaction (final volume=51 ul). The final concentrations of the components were as follows: PRMT8 was 1.5 nM, ^3H-SAM was 50 nM, non-radiolabeled SAM was 550 nM, peptide was 150 nM, SAH in the minimum signal control wells was 1 mM, and the DMSO concentration was 2%. The assays were stopped by the addition of non-radiolabeled SAM (10 ul) to a final concentration of 400 uM, which dilutes the ^3H-SAM to a level where its incorporation into the peptide substrate is no longer detectable. 50 ul of the reaction in the 384-well polypropylene plate was then transferred to a 384-well Flashplate and the biotinylated peptides were allowed to bind to the streptavidin surface for at least 1 hour before being washed once with 0.1% Tween20 in a Biotek EL×405 plate washer. […]

Setting [1] is: biochemical evaluation, peptide substrate, read-out: PRMT8 IC50.
[2] abbreviates: single experiment or average of multiple experiments, read-out: PRMT8 biochemical evaluation (numerical).

human PRMT8, sequence (Q9NR22 whole entry): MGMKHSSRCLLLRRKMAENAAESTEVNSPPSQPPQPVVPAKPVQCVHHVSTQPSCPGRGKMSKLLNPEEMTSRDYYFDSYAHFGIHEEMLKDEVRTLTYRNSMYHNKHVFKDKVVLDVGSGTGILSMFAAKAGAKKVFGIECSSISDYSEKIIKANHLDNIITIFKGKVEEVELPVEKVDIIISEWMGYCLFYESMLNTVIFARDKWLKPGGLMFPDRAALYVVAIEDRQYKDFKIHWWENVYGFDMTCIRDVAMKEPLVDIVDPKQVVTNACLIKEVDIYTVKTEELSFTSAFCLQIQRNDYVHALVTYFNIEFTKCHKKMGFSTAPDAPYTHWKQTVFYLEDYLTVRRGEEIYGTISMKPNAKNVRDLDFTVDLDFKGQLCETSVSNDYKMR

Consider `CN(CCN)Cc1n[nH]c2ccc(OCc3ccccc3)cc12` [Compound 1B], for which the IC50 reads like this: under setting [1], 101 to 1000 nM; under setting [2], 267 nM.

For the compound `CNCCN(C)Cc1n[nH]c2cccc(OCCC(C)C)c12` [Compound 31], the IC50 under setting [1] was 101 to 1000 nM.

As for `CNCCN(C)Cc1n[nH]c2ccc(C(C)C)cc12` [Compound 42, N^1-((5-isopropyl-1H-indazol-3-yl)methyl)-N^1,N^2-dimethylethane-1,2-diamine], the IC50 reads like this: under setting [1], 101 to 1000 nM; under setting [2], 2850 nM.

For `CNCCN(C)Cc1n[nH]c2ccc(OCc3ccn(C)n3)cc12` [Compound 20], the IC50 under setting [1] is less than 100 nM.

Consider `CNCCN(C)Cc1n[nH]c2cccc(OCCC(O)CO)c12` (centres unmarked) [Compound 40], for which the IC50 under setting [1] is 1010 to 3000 nM.

With `CNCCN(C)Cc1n[nH]c2ccc(OCc3ccn(CC(C)C)n3)cc12` [Compound 33], the IC50 is, setting by setting: under setting [1], 1010 to 3000 nM; under setting [2], 273 nM.

On to `CNCCN(C)Cc1n[nH]c2ccc(Oc3cccc(OC)c3)cc12` [Compound 22], for which, under setting [2], the IC50 amounted to 80.2 nM.

For `CNCCN(C)Cc1n[nH]c2ccc(OCc3ccc(C(C)=O)cc3)cc12` [Compound 23], under setting [2], the IC50 is 42.8 nM.

As for `CNCCN(C)Cc1n[nH]c2ccc(OC)cc12` [Compound 35], the IC50 under setting [2] is 1860 nM.

For `CNCCN(C)Cc1n[nH]c2ccc(C3=CCCCC3)cc12` [Compound 48], the IC50 is not above 100 nM under setting [1] and 83.4 nM under setting [2].

For the compound `CNCCN(C)Cc1n[nH]c2ccc(Oc3ccccc3C(F)(F)F)cc12` [Compound 49], under setting [2], the IC50 stood at 45.4 nM.

Regarding `CC(C)COc1ccc2[nH]nc(CN(C)CCN)c2c1` [Compound 2, N1-((5-iso-butoxy-1H-indazol-3-yl)methyl)-N1-methylethane-1,2-diamine], the IC50 runs as follows: under setting [1], 101 to 1000 nM; under setting [2], 458 nM.

For `CNCCN(C)Cc1n[nH]c2ccc(N3CCC4(CCCCC4)CC3)cc12` [Compound 43, N^1-((5-(3-azaspiro[5.5]undecan-3-yl)-1H-indazol-3-yl)methyl)-N^1,N^2-dimethylethane-1,2-diamine], the IC50 was 101 to 1000 nM under setting [1] and 2000 nM under setting [2].

In the case of `CNCCN(C)Cc1n[nH]c2cccc(OCCCC(O)CO)c12` (centres unmarked) [Compound 41, 5-((3-((methyl(2-(methylamino)ethyl)amino)methyl)-1H-indazol-4-yl)oxy)pentane-1,2-diol], the IC50 under setting [1] lay in the range of 1010 to 3000 nM.

On to `CNCCN(C)Cc1n[nH]c2ccc(OCC(C)c3ccccc3)cc12` (centres unmarked) [Compound 19], for which the IC50 under setting [1] is less than 100 nM.

In the case of `CNCCN(C)Cc1n[nH]c2ccc(N3CCCCC3)cc12` [Compound 46, N^1,N^2-dimethyl-N^1-((5-(piperidin-1-yl)-1H-indazol-3-yl)methyl)ethane-1,2-diamine], the IC50 was less than 100 nM under setting [1] and 98.8 nM under setting [2].

Turning to `CNCCN(C)Cc1n[nH]c2ccc(C3=CCOCC3)cc12` [Compound 45], the IC50 by setting is: under setting [1], less than 100 nM; under setting [2], 133 nM.

In the case of `CNCCN(C)Cc1n[nH]c2ccc(C3CCOCC3)cc12` [Compound 44, N^1,N^2-dimethyl-N^1-((5-(tetrahydro-2H-pyran-4-yl)-1H-indazol-3-yl)methyl)ethane-1,2-diamine], the IC50 runs as follows: under setting [1], less than 100 nM; under setting [2], 236 nM.

In the case of `CNCCN(C)Cc1n[nH]c2cccc(OCc3ccccc3)c12` [Compound 21], the IC50 reads like this: under setting [1], less than 100 nM; under setting [2], 67.5 nM.

On to `CNCCN(C)Cc1n[nH]c2ccc(C3CCCCC3)cc12` [Compound 47, N^1-((5-cyclohexyl-1H-indazol-3-yl)methyl)-N^1,N^2-dimethylethane-1,2-diamine], for which the IC50 runs as follows: under setting [1], not above 100 nM; under setting [2], 91.8 nM.

As to `CNCCN(C)Cc1n[nH]c2ccc(OCC3CCOCC3)cc12` [Compound 50], the IC50 under setting [2] was found to be 38.7 nM.
